Test system: 454973-116-R2-J3-PDC spheroids, percent test/control viability
Experiment: Anticancer human tumor 454973-116-R2-J3-PDC patient-derived pancreatic carcinoma cell line growth inhibition [CLK]
Details: spheroids with HUVEC and MSC; for IC50: curve of first compound; for viability, T/C: stronger effect = lower value
Outline: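 Patient-derived tumor cells grown as complex spheroids with HUVEC endothelial cells and mesenchymal stem cells, treated with drug combinations. Concentrations descend in half-log steps from near clinical Cmax, or from 10 microM if Cmax unknown.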
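Also: spheroids exposed to compounds for 7 days before readout.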

## COc1c(OCCCN2CCOCC2)ccc2c3n(c(=NC(=O)c4cnc(N)nc4)nc12)CCN3 + CNC(=O)c1ccc(Nc2nc(OC3CCCC3)c3c(-c4ccc5nc(C)oc5c4)c[nH]c3n2)c(OC)c1
Second compound 0.0316 µM
  IC50: 72.2 nM
Second compound 0.1 µM
  IC50: 66.9 nM
Second compound 0.316 µM
  IC50: 17.9 nM
Second compound 1 µM
  IC50: < 3.16 nM
Second compound 3.16 µM
  IC50: < 3.16 nM
Second compound 10 µM
  IC50: < 3.16 nM
Second compound 0.0316 µM, first compound 0.00316 µM
  viability, T/C: 99.8%
Second compound 0.0316 µM, first compound 0.01 µM
  viability, T/C: 93%
Second compound 0.0316 µM, first compound 0.0316 µM
  viability, T/C: 71.3%
Second compound 0.0316 µM, first compound 0.1 µM
  viability, T/C: 39%
Second compound 0.0316 µM, first compound 0.316 µM
  viability, T/C: 24.4%
Second compound 0.0316 µM, first compound 1 µM
  viability, T/C: 8.47%
Second compound 0.1 µM, first compound 0.00316 µM
  viability, T/C: 96.2%
Second compound 0.1 µM, first compound 0.01 µM
  viability, T/C: 79.6%
Second compound 0.1 µM, first compound 0.0316 µM
  viability, T/C: 70.5%
Second compound 0.1 µM, first compound 0.1 µM
  viability, T/C: 37.5%
Second compound 0.1 µM, first compound 0.316 µM
  viability, T/C: 24.2%
Second compound 0.1 µM, first compound 1 µM
  viability, T/C: 8.81%
Second compound 0.316 µM, first compound 0.00316 µM
  viability, T/C: 56.4%
Second compound 0.316 µM, first compound 0.01 µM
  viability, T/C: 54.7%
Second compound 0.316 µM, first compound 0.0316 µM
  viability, T/C: 47%
Second compound 0.316 µM, first compound 0.1 µM
  viability, T/C: 26.1%
Second compound 0.316 µM, first compound 0.316 µM
  viability, T/C: 17.5%
Second compound 0.316 µM, first compound 1 µM
  viability, T/C: 7.41%
Second compound 1 µM, first compound 0.00316 µM
  viability, T/C: 34.2%
Second compound 1 µM, first compound 0.01 µM
  viability, T/C: 30.5%
Second compound 1 µM, first compound 0.0316 µM
  viability, T/C: 22.2%
Second compound 1 µM, first compound 0.1 µM
  viability, T/C: 13.1%
Second compound 1 µM, first compound 0.316 µM
  viability, T/C: 8.12%
Second compound 1 µM, first compound 1 µM
  viability, T/C: 4.63%
Second compound 3.16 µM, first compound 0.00316 µM
  viability, T/C: 25.7%
Second compound 3.16 µM, first compound 0.01 µM
  viability, T/C: 24.6%
Second compound 3.16 µM, first compound 0.0316 µM
  viability, T/C: 21.1%
Second compound 3.16 µM, first compound 0.1 µM
  viability, T/C: 14.8%
Second compound 3.16 µM, first compound 0.316 µM
  viability, T/C: 7.11%
Second compound 3.16 µM, first compound 1 µM
  viability, T/C: 5.46%
Second compound 10 µM, first compound 0.00316 µM
  viability, T/C: 24.2%
Second compound 10 µM, first compound 0.01 µM
  viability, T/C: 22%
Second compound 10 µM, first compound 0.0316 µM
  viability, T/C: 17.8%
Second compound 10 µM, first compound 0.1 µM
  viability, T/C: 13.3%
Second compound 10 µM, first compound 0.316 µM
  viability, T/C: 8.89%
Second compound 10 µM, first compound 1 µM
  viability, T/C: 3.02%

Source: PubChem BioAssay AID2060618 (Molecular Pharmacology Branch, DTP, NCI, 2025)
